What is called pEC50 is −log10 of the EC50, conventionally taken in molar units. High values mean a small EC50, low ones a large EC50.

For one test, the target named is T1, PAC1R (Homo sapiens, UniProt P41586).
T1 construct: An HA signal peptide was inserted in place of the native signal peptide of the receptors; HA signal peptide (replaces the native signal peptide) (N); 3C protease cleavage sites (between FLAG and receptor, and between receptor and His) (internal); expressed in transfected cells; host or cells: COS-7 (transient, PEI)
T1 sequence (P41586 21-468): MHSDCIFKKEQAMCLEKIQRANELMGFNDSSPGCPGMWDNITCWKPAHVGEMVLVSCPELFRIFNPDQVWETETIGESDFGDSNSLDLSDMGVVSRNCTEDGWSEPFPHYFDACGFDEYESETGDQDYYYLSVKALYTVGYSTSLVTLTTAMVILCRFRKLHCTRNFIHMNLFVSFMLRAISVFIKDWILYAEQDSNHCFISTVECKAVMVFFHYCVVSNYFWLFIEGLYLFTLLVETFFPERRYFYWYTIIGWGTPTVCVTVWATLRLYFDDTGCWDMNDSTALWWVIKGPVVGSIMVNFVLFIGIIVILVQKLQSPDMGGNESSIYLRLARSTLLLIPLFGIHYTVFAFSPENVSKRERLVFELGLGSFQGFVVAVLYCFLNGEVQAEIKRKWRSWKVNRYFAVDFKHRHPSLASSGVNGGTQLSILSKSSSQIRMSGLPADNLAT
Nature of the test: cAMP accumulation, chimeric peptides (Fig. 5b). In kind it is cell-based. The note with it: COS-7, three-parameter logistic, read-out: pEC50, PAC1R cAMP (converted). The text has this: An HA signal peptide was inserted in place of the native signal peptide of the receptors and a FLAG epitope was incorporated into the receptor N-terminus immediately after the signal peptide. A His tag was fused to C-terminus of the receptor. 3C protease cleavage sites were inserted between both the FLAG and His tags and the receptor. […] The following PAC1R and VPAC1R mutants were also generated using Quikchange mutagenesis: PAC1R C25A, PAC1R C219A, PAC1R C25A/C219A, VPAC1R C37A and VPAC1R C208A. For all PAC1R constructs, we used the PAC1R null (PAC1n) splice variant. A construct containing N-terminal NLuc immediately after the native signal peptide of PAC1R was also generated in pcDNA3.1.
(§1) COS-7 cells were used for the chimeric peptide and cysteine mutagenesis pharmacological assays due to their lack of endogenous expression of PAC1R and receptor activity-modifying proteins, reported to potentially heterodimerize with PAC1R and VPAC1R[42]. Cells were cultured in Dulbecco’s Modified Eagle’s Medium (DMEM) (Invitrogen) supplemented with 5% v/v heat-inactivated FBS at 37 °C and 95% O2 /5% CO2 in a humidified incubator. COS-7 cells were plated in 10 cm dishes at approximately 1 million cells/dish. Cells were transfected 24 h later, with 5 µg of either WT or mutant PAC1R or VPAC1R receptor DNA. DNA and PEI (in a 1:6 ratio) were each diluted in 150 mM NaCl, and then combined and incubated for 10 min, before the mixture was added to the 10 cm dish. The next day, cells were harvested from the 10 cm dishes using Trypsin-Versene (PBS + 0.5 mM EDTA, pH 7.4), and were seeded at a density of 15,000 cells/well into clear 96-well culture plates and incubated overnight at 37 °C in 5% CO2 for cAMP accumulation assay the next day.
(§2) The reaction was terminated after 30 min by aspiration of the buffer and addition of 50 μl of ice-cold ethanol. Upon evaporation of ethanol, 75 μl of lysis buffer (5 mM HEPES, 0.1% (w/v) OVA, 0.3% (w/v) Tween20, pH 7.4) was added to the cells. cAMP detection was performed using a LANCE cAMP Detection Kit (PerkinElmer) for the construct validation and cysteine mutagenesis pharmacological assays and cAMP Gs HiRange kit (Cisbio) for the chimeric peptide pharmacological assays. The plates were read using an EnVision plate reader with excitation at 320 nm and emission at 615 nm[45].
(§3) The pharmacological data in figures and tables are reported as mean + standard error of the mean (SEM) with the number of biological replicates indicated in the figure and table legends where “n” represents the number of biological replicates performed. Concentration-response data were analyzed in GraphPad Prism version 9.4.0 using a three-parameter logistic curve to derive pEC50 values for the cyclic AMP accumulation. Competition binding data were analyzed in GraphPad Prism using the one site—Fit log IC50 model to derive pIC50 values. For the cysteine mutagenesis data, comparisons of multiple different groups were performed using one-way analysis of variance (ANOVA), followed by Dunnett’s post-hoc test with the control group being the WT receptor, with significance accepted at p < 0.05. For the chimeric peptide data, comparisons of multiple different groups were performed using one-way ANOVA, followed by Tukey’s post-hoc test, with significance accepted at p < 0.05.
Background: cAMP levels reflect the balance of adenylyl cyclase and phosphodiesterase activity.

In a further test the target is T2, VPAC1R (Homo sapiens, UniProt P32241).
T2 construct: An HA signal peptide was inserted in place of the native signal peptide of the receptors; HA signal peptide (replaces the native signal peptide) (N); 3C protease cleavage sites (between FLAG and receptor, and between receptor and His) (internal); expressed in transfected cells; host or cells: COS-7 (transient, PEI)
T2 sequence (P32241 31-457): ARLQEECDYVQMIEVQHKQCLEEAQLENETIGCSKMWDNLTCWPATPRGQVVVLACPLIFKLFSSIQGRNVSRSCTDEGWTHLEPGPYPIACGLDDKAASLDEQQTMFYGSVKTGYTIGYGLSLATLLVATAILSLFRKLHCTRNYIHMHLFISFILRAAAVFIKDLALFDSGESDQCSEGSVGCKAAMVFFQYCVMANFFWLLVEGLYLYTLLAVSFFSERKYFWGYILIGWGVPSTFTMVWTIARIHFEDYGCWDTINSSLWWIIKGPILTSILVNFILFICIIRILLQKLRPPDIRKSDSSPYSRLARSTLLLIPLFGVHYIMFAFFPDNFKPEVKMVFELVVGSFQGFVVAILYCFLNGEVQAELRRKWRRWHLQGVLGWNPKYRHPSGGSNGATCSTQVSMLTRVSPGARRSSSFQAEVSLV
Nature of the test: cAMP accumulation, chimeric peptides (Fig. 5a). In kind it is cell-based. Conditions: pEC50, VPAC1R cAMP, COS-7, three-parameter logistic. How it is done:
as §1, with “Cells were cultured in Dulbecco’s Modified Eagle’s Medium (DMEM) (Invitrogen) supplemented with 5% v/v heat-inactivated FBS at 37 °C and 95% O2 /5% CO2 in a humidified incubator.” left out
as §2, §3

pEC50: −log10 of the molar value. Read-outs that look alike come from different tables or passages of the source. No end group written: not given here.

On to “HSDGVFTDNYTRLRKQMAVKKYLNSILN-NH2 [Gly4 VIP]”, for which the EC50 on PAC1R (replicate n=1) was 28.7 nM; on PAC1R (replicate n=2) it was 12 nM; at PAC1R (replicate n=3) it was 12.6 nM; on PAC1R (replicate n=4), 23.6 nM; on PAC1R (replicate n=5) it was 7.96 nM. The pEC50 is 8.90 on VPAC1R (replicate n=1); 9.00 at VPAC1R (replicate n=2); 8.78 at VPAC1R (replicate n=3); 8.77 on VPAC1R (replicate n=4); 8.86 on VPAC1R (replicate n=5).
Take `CC[C@H](C)[C@H](NC(=O)[C@H](C)NC(=O)[C@H](CC(=O)O)NC(=O)[C@H](CO)NC(=O)[C@@H](N)Cc1cnc[nH]1)C(=O)N[C@@H](Cc1ccccc1)C(=O)N[C@H](C(=O)N[C@@H](CC(=O)O)C(=O)N[C@@H](CO)C(=O)N[C@@H](Cc1ccc(O)cc1)C(=O)N[C@@H](CO)C(=O)N[C@@H](CCCNC(=N)N)C(=O)N[C@@H](Cc1ccc(O)cc1)C(=O)N[C@@H](CCCNC(=N)N)C(=O)N[C@@H](CCCCN)C(=O)N[C@@H](CCC(N)=O)C(=O)N[C@@H](CCSC)C(=O)N[C@@H](C)C(=O)N[C@H](C(=O)N[C@@H](CCCCN)C(=O)N[C@@H](CCCCN)C(=O)N[C@@H](Cc1ccc(O)cc1)C(=O)N[C@@H](CC(C)C)C(=O)N[C@@H](C)C(=O)N[C@@H](C)C(=O)N[C@H](C(=O)N[C@@H](CC(C)C)C(N)=O)C(C)C)C(C)C)[C@@H](C)O` [Ala4 PACAP27]: the EC50 on PAC1R (replicate n=1) was 3.48 nM; on PAC1R (replicate n=2) it was 1.67 nM; at PAC1R (replicate n=3), 2.05 nM; at PAC1R (replicate n=4), 8.65 nM; on PAC1R (replicate n=5), 3.32 nM. Moreover, the pEC50 was 8.65 at VPAC1R (replicate n=1); 8.60 at VPAC1R (replicate n=2); 8.03 at VPAC1R (replicate n=3); 8.76 at VPAC1R (replicate n=4); 7.91 at VPAC1R (replicate n=5).
